Here are results for one compound from publication PMC2151541 (The Journal of General Physiology, 2006).

SMILES strings stand for the structures.

The assay has as its target muscle acetylcholine nicotinic receptor (AChR), adult mouse muscle, wild type (Mus musculus, UniProt P02716+P04756+P09690+P20782). As to the kind of experiment: cell-attached single-channel patch clamp. Format: cell-based. (The patch-clamp technique gives a direct electrical read-out from membranes.)

Sequence of muscle acetylcholine nicotinic receptor (AChR), adult mouse muscle, wild type (P02716 25-520): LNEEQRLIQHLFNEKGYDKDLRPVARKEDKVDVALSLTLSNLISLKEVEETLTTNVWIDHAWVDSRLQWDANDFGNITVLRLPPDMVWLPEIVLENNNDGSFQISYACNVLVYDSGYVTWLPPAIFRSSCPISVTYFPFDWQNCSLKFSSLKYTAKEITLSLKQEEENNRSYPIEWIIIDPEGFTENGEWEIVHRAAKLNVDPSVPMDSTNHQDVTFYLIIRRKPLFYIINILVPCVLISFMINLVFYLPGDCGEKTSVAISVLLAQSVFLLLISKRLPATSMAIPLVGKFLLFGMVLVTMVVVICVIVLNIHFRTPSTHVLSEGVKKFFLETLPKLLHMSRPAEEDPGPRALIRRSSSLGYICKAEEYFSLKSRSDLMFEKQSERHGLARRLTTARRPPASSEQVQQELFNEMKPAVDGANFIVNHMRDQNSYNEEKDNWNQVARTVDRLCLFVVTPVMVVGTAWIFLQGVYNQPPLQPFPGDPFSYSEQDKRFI
Sequence of muscle acetylcholine nicotinic receptor (AChR), adult mouse muscle, wild type (P20782 21-493): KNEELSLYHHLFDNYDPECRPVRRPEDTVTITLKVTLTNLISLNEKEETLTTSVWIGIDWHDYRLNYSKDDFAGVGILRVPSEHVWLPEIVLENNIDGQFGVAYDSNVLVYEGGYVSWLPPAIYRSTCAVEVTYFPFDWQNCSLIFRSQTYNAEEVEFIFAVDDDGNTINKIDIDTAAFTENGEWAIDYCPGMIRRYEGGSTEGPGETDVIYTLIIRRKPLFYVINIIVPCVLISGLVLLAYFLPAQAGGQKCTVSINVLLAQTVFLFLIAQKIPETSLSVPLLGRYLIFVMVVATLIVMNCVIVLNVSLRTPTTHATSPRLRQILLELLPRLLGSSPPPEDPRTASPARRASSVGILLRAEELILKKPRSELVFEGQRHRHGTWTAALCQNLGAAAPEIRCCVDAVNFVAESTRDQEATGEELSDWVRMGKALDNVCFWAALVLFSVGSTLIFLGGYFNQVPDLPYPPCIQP
Sequence of muscle acetylcholine nicotinic receptor (AChR), adult mouse muscle, wild type (P04756 21-457): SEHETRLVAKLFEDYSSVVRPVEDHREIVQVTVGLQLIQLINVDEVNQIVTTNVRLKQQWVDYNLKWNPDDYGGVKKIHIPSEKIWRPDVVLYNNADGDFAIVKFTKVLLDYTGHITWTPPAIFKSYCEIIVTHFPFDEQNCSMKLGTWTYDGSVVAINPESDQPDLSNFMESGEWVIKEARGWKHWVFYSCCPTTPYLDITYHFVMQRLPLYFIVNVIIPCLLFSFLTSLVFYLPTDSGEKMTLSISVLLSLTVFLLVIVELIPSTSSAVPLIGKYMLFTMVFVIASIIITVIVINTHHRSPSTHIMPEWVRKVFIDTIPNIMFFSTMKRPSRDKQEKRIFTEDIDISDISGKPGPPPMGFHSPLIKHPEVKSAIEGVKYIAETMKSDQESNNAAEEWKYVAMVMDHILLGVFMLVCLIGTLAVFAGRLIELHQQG
Sequence of muscle acetylcholine nicotinic receptor (AChR), adult mouse muscle, wild type (P09690 24-501): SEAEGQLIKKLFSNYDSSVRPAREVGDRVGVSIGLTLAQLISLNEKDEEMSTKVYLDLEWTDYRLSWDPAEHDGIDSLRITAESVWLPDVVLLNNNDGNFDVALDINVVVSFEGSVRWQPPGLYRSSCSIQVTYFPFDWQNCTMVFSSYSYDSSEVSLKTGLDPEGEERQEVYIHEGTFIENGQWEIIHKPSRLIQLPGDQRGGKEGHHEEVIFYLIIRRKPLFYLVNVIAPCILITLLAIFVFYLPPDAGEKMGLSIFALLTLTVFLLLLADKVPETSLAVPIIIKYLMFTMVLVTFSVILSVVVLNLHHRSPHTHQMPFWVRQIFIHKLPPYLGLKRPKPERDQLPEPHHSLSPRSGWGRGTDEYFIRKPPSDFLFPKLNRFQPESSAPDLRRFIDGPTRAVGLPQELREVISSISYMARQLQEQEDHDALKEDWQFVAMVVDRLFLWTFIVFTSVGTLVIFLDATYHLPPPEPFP

For `C[N+](C)(C)CCO` [choline], the equilibrium dissociation constant (Kd) – broadly, a measure of binding affinity in units of concentration – was determined as 12.5 mM.
